Experimental data reported in patent US6096725A, “Methods of using αGal oligosaccharides as immune system targeting agents” (Neose Technologies, Inc., priority 1997, dated 2000).
Read-outs that look alike come from different tables or passages of the source.

Assays:
[1] = Pharmacokinetics after 15 minute intravenous bolus in baboons; format: in vivo, baboon; conditions: for clearance / half-life / Vd: baboon, plasma, iv, 500 umol/kg, 0.5 mMol/Kg 15 minute i.v. bolus; for Vd: read-out: Volume of Distribution
Method: The pharmacokinetics of the αGal trisaccharide compositions and the αGal pentasaccharide compositions were determined by delivering to one baboon by 15 minute intravenous bolus, 0.5 mMol/Kg of one oligosaccharide and 48 hours later, delivering 0.5 mmol/Kg of the second oligosaccharide, and for a second baboon, delivering the oligosaccharides according to the same procedure, but in the reverse order.
Three Baboons were outfitted with indwelling venous and arterial catheters to the femoral vessels, and held in place with the aid of a jacket. Oligosaccharides were administered through the catheter in a 15 minute continuous infusion.
The clearance is used to calculate the infusion rate needed to maintain a desired drug concentration. The half-life describes how quickly concentrations diminish with time. Mathematical formulations known in the art were applied to estimate the pharmacokinetic parameters of the αGal trisaccharide and αGal pentasaccharide. […] Compared to other drugs, the volumes of distribution of these oligosaccharides are low, less than the extravascular water volume (<400 mL/kg). The clearance is typical of compounds eliminated by GFR (glomerular filtration rate).

[2] = test system: mouse endothelial cell line MAE; assay: Cytotoxicity of baboon serum against MAE cells with exogenously added αGal pentasaccharide; format: cell-based
Method: FIG. 4 Cytotoxicity of serum from a baboon receiving αGal pentasaccharide (αGal-LNnT) intravenously. Shaded circles represent cytotoxicity of serum as recovered from baboon against mouse endothelial cell line MAE. Other lines indicate varying concentrations of exogenously added αGal-pentasaccharide into cytotoxicity assay. Added concentrations of the αGal pentasaccharide are depicted as follows: 2.0 mM, open circle; 1.0 mM, ×; 0.5 mM, diamond; and 0.25 mM, open square. […] Sera were incubated with serial dilutions of αGal oligosaccharides at 37° C. for 1 hour, then added to αGal-expressing monolayers (pig kidney cells, PK-15) in Terasaki plates for 1 hour at 37° C. Cytotoxicity was mediated by either endogenous complement, or the sera were de-complemented (heat inactivated for 30 minutes at 56° C.) and exogenous (rabbit) complement was added. After washing away excess serum, the viable dye mix "live-dead" (calcein AM/ethidium homodimer (Molecular Probes Inc., Eugene Oreg.)) was added and monolayers were scored for viability by fluorescence microscopy. Three Baboons were outfitted with indwelling venous and arterial catheters to the femoral vessels, and held in place with the aid of a jacket. Oligosaccharides were administered through the catheter in a 15 minute continuous infusion.

[3] = set-up: species or system baboon; conditions: in vivo
Method: The two xenotransplant baboons were outfitted with an indwelling catheter to the femoral vein to infuse compound and a catheter to the femoral artery for blood sampling. Following the transplant procedure, but just prior to providing circulatory access to the xenograft, the oligosaccharide was administered by i.v. pump through the catheter in a 15 min loading dose, followed by continuous 4 hour infusion to achieve 2.5 mM blood concentration (as determined by calculations presented in Table 2). […] Blood specimens collected for plasma were immediately centrifuged and the plasma withdrawn and stored frozen at -20° C. Blood specimens collected for serum were clotted at 4° C. overnight and the withdrawn serum frozen at -20° C. The αGal pentasaccharide was prepared according to the enzymatic methods set forth in example 6.2 and stored as a dry, white, solid powder. The oligosaccharide was dissolved in 250 mL sterile infusion grade saline to a concentration of 0.154 g/mL, or 177 mM. Induction anesthesia was with ketamine hydrochloride 5 mg/kg/body weight in and 0.5 mg/kg of xylazine iv. Intravenous fluid of approximately 20 ml/kg body weight was given during the course of the operative procedure through either a peripheral or central vein. Atropine 0.5 mg/kg was given iv. […] Arterial pressure was monitored in the recipient baboon by intermittent automatic cuff recordings.

[4] = to attain 0.5 mM steady state serum concentration
[5] = to attain 1.0 mM steady state serum concentration
[6] = to attain 2.0 mM steady state serum concentration

With `CC(=O)N[C@H]1[C@H](O[C@H]2[C@@H](O)[C@@H](CO)O[C@@H](O[C@H]3[C@H](O)[C@@H](O)C(O)O[C@@H]3CO)[C@@H]2O)O[C@H](CO)[C@@H](O[C@@H]2O[C@H](CO)[C@H](O)[C@H](O[C@H]3O[C@H](CO)[C@H](O)[C@H](O)[C@H]3O)[C@H]2O)[C@@H]1O` (stereo partly drawn) [αGal pentasaccharide, Galα1-3Galβ1-4GlcNAcβ1-3Galβ1-4Glc] the clearance ([1]; baboon 1003) was 2.93 mL/min/kg, the half-life ([1]; baboon 1003) was 47.3 min and the Vd ([1]; baboon 1003) was 0.199 L/kg. It also gave a clearance ([1]; baboon 1015) of 3.97 mL/min/kg, a half-life ([1]; baboon 1015) of 40.2 min and a Vd ([1]; baboon 1015) of 0.23 L/kg. For the same compound, the “Calculated continuous infusion, total amount” value (shortened to “Calculated continuous infusion”) [1, 4] was 1.44 Kg/14 days, the Calculated loading dose [1, 4] was 4.12 g/20 Kg baboon and the “Calculated loading dose (bolus or 15 min infusion)” value [1, 4] was 206 mg/kg. For the same compound, the “Calculated continuous infusion” value [1, 5] was 2.88 Kg/14 days, the Calculated loading dose [1, 5] was 8.24 g/20 Kg baboon and the “Calculated loading dose (bolus or 15 min infusion)” value [1, 5] was 412 mg/kg. For the same compound, the “Calculated continuous infusion” value [1, 6] was 5.74 Kg/14 days, the Calculated loading dose [1, 6] was 16.48 g/20 Kg baboon and the “Calculated loading dose (bolus or 15 min infusion)” value [1, 6] was 824 mg/kg. For the same compound, the “Inhibition of MAE cell cytotoxicity, in words” value ([2]; baboon serum (FIG. 4), similar results with pig PK15 cells) was “fully inhibits MAE cell cytotoxicity”, the “Concentration of αGal pentasaccharide that inhibits serum cytotoxicity of MAE cells” value ([2]; baboon serum, exogenously added oligosaccharide (FIG. 4)) was “greater than 1 mM” and the “Blood concentration relative to prediction from earlier pharmacokinetic infusions” value [3] was “approximately twice what was predicted”.
